{
  "source": "patent US10011615B2",
  "about": "“Heterobicyclo-substituted [1,2,4]triazolo[1,5-c]quinazolin-5-amine compounds with A2A anatagonist properties” (Merck Sharp & Dohme Corp., priority 2012, dated 2018)",
  "note": "Several values for one entry are separate records, joined by “and”; a condition that tells them apart may be missing. Equal values may be shown once.",
  "data": [
    {"target": "T1, human A2a receptor (Homo sapiens, UniProt P29274)", "T1 construct": "purchased Perkin-Elmer RBHA2AM400UA; host or cells: HEK293 cell membranes", "T1 sequence (P29274 whole entry)": "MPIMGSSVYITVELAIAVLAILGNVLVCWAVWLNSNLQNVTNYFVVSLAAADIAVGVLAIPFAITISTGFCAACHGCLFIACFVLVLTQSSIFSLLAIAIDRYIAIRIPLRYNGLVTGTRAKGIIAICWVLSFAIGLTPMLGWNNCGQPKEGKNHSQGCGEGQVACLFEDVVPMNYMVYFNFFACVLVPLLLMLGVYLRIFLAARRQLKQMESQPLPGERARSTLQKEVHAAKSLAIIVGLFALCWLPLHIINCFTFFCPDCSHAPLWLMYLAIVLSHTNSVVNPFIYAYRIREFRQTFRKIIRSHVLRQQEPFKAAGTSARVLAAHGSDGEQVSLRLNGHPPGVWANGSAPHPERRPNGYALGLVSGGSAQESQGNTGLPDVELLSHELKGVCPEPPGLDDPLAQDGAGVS", "assay": "A2a receptor competition binding assay using Scintillation Proximity technology", "conditions": "membranes from HEK293 cells expressing human A2a receptor; 0.5 nM tritiated radioligand; SPA beads; 1 h room temperature", "protocol": "Binding affinities of compounds of the invention for the human A2a receptor were determined in a competition binding assay using Scintillation Proximity technology. Thus, 0.3 μg of membranes from HEK293 cells expressing the human A2a receptor were incubated with a compound of the invention at concentrations ranging from 3000 nM to 0.15 nM in a reaction mixture containing also 0.5 nM of a tritiated form of 5-amino-7-[2-phenethyl]-2-(furan-2-yl)-7H-pyrazolo[4,3-e][1,2,4]triazolo[1,5-c]pyrimidine (the tritiated compound) and 100 μg of wheat germ agglutin-coated yttrium silicate SPA beads for one hour at room temperature with agitation. The beads were then allowed to settle to the bottom of the wells for 1 hr, after which the membrane-associated radioactivity was determined by scintillation counting in a TopCount microplate reader. Ki values were determined using the Cheng-Prusoff equation.\nSummary of Materials and Methods Used in A2a Activity Determination:\nHEK293 cells expressing the human, rat, dog or monkey adenosine 2a receptor (Purchased from Perkin-Elmer # RBHA2AM400UA).\nThe Tritiated compound was prepared in-house by MRL Radiochemistry according to published methods.\nWheat germ agglutinin-coated yttrium silicate SPA beads (GE Healthcare#RPNQ0023). Dilute to 25 mg/ml in assay buffer.\nAssay Buffer was prepared in house: Dulbecco's calcium and magnesium free phosphate buffered saline+10 mM MgCl2\nAdenosine deaminase from calf intestine, 10 mg/2 ml (Roche) 10 102 105 001).\nA2a antagonist standard (9-chloro-1-(2-furanyl)-[1,2,4]triazolo1,5-c]quinazolin-5-amine from Tocris Bioscience)\nMake eight 1:3 serial dilutions in 100% DMSO from a 3 mM compound stock\nTransfer 50 nl of compound into a 384-well OptiPlate (Perkin Elmer).\nTypically, final concentrations of compound used in the assay ranged from 3000 nM to 0.152 nM.\nDilute a solution of the Tritiated compound to 1.25 nM in assay buffer. This is a 2.5× solution. The final concentration in the assay is 0.5 nM. Calculate the concentration by counting two 5 μl aliquots.\nUse 0.25 ug of membrane/well. Dilute membranes to 9.7 μg/ml in assay buffer. Treat with 20 ug/ml adenosine deaminase (ADA) for 15 minutes at room temperature to degrade endogenous adenosine.\nUse 100 μg/well wheat germ agglutinin-coated yttrium silicate SPA beads.\nMix ADA-treated membranes and SPA beads together for 30 min prior to assay.\nTo the Perkin-Elmer Optiplate-384 containing the compound titration add 20 μl of 2.5× solution of the Tritiated compound and 30 μl of the membrane-bead mixture. Incubate for one hour at room temperature with agitation.\nInclude total binding (assay buffer+1% DMSO) and non-specific binding (CGS15943, 1 μM) wells.\nAllow the beads to settle for one hour.\nA curve fitting program (i.e., Prism, Activity Base, Chemcart) is used to determine the EC50. The Ki value is calculated using the Cheng-Prusoff equation: K i=EC50/(1+(radioligand concentration/Kd)).", "values": [
      {"smiles": "COc1cccc2c1nc(N)n1nc(CCN3CCn4c(nnc4SC)C3)nc21", "note": "[Ex-1, 7-methoxy-2-(2-(3-(methylthio)-5,6-dihydro-[1,2,4]triazolo[4,3-a]pyrazin-7(8H)-yl)ethyl)-[1,2,4]triazolo[1,5-c]quinazolin-5-amine]", "EC50": "4 nM"},
      {"smiles": "COc1cccc2c1nc(N)n1nc(CCN3CCn4c(nnc4C(=O)NC(C)(C)C)C3)nc21", "note": "[Ex-2, 7-(2-(5-amino-7-methoxy-[1,2,4]triazolo[1,5-c]quinazolin-2-yl)ethyl)-N-tert-butyl-5,6,7,8-tetrahydro-[1,2,4]triazolo[4,3-a]pyrazine-3-carboxamide]", "EC50": "2.9 nM"},
      {"smiles": "COc1cccc2c1nc(N)n1nc(CCN3CCn4c(Br)nnc4C3)nc21", "note": "[Ex-3, 2-(2-(3-bromo-5,6-dihydro-[1,2,4]triazolo[4,3-a]pyrazin-7(8H)-yl)ethyl)-7-methoxy-[1,2,4]triazolo[1,5-c]quinazolin-5-amine]", "EC50": "3.4 nM"},
      {"smiles": "CCOC(=O)c1nnc2n1CCN(CCc1nc3c4cccc(OC)c4nc(N)n3n1)C2", "note": "[Ex-4, ethyl 7-(2-(5-amino-7-methoxy-[1,2,4]triazolo[1,5-c]quinazolin-2-yl)ethyl)-5,6,7,8-tetrahydro-[1,2,4]triazolo[4,3-a]pyrazine-3-carboxylate]", "EC50": "4.6 nM"},
      {"smiles": "COc1cccc2c1nc(N)n1nc(CCN3Cc4ccc(Cl)nc4C3)nc21", "note": "[Ex-5, 2-(2-(2-chloro-5H-pyrrolo[3,4-b]pyridin-6(7H)-yl)ethyl)-7-methoxy-[1,2,4]triazolo[1,5-c]quinazolin-5-amine]", "EC50": "4.7 nM"},
      {"smiles": "COc1cccc2c1nc(N)n1nc(CCN3CCc4c(Br)ccnc4C3)nc21", "note": "[Ex-6, 2-(2-(4-bromo-5,6-dihydro-1,7-naplithyridin-7(8H)-yl)ethyl)-7-methoxy-[1,2,4]triazolo[1,5-c]quinazolin-5-amine]", "EC50": "5.9 nM"},
      {"smiles": "COc1cccc2c1nc(N)n1nc(CCN3CCc4c(cnn4C4CC4)C3)nc21", "note": "[Ex-7, 2-(2-(1-cyclopropyl-6,7-dihydro-1H-pyrazolo[4,3-c]pyridin-5(4H)-yl)ethyl)-7-methoxy-[1,2,4]triazolo[1,5-c]iquinazolin-5-amine]", "EC50": "1.4 nM"},
      {"smiles": "COc1cccc2c1nc(N)n1nc(CCN3CCn4c(cnc4C(C)C)C3)nc21", "note": "[Ex-8, 2-(2-(3-isopropyl-5,6-dihydroimidazo[1,5-a]pyrazin-7(8H)-yl)ethyl)-7-methoxy-[1,2,4]triazolo[1,5-c]quinazolin-5-amine]", "EC50": "2.2 nM"},
      {"smiles": "COc1cccc2c1nc(N)n1nc(CCN3CCc4noc(C(F)(F)F)c4C3)nc21", "note": "[Ex-9, 7-methoxy-2-(2-(3-(trifluoromethyl)-6,7-dihydroisoxazolo[4,3-c]pyridin-5(4H)-yl)ethyl)-[1,2,4]triazolo[1,5-c]quinazolin-5-amine]", "EC50": "2.1 nM"},
      {"smiles": "COc1cccc2c1nc(N)n1nc(CCN3CCn4cc(C(=O)C5CC5)nc4C3)nc21", "note": "[Ex-10, (7-(2-(5-amino-7-methoxy[1,2,4]triazolo[1,5-c]quinazolin-2-yl)ethyl)-5,6,7,8-tetrahydroimidazo[1,2-a]pyrazin-2-yl)(cyclopropyl)methanone]", "EC50": "1.2 nM"},
      {"smiles": "COc1cccc2c1nc(N)n1nc(CCN3CCn4nc(C(F)(F)F)nc4C3)nc21", "note": "[Ex-11]", "EC50": "2.7 nM"},
      {"smiles": "COc1cccc2c1nc(N)n1nc(CCN3CCn4nc(C5CC5)nc4C3)nc21", "note": "[Ex-12, 2-(2-(2-cyclopropyl-5,6-dihydro-[1,2,4]triazolo[1,5-a]pyrazin-7(8H)-yl)ethyl)-7-methoxy-[1,2,4]triazolo[1,5-c]quinazolin-5-amine]", "EC50": "2 nM"},
      {"smiles": "CCc1ncc2n1CCN(CCc1nc3c4cccc(OC)c4nc(N)n3n1)C2", "note": "[Ex-13, 2-(2-(3-ethyl-5,6-dihydroimidazo[1,5-a]pyrazin-7(8H)-yl)ethyl)-7-methoxy-[1,2,4]triazolo[1,5-c]quinazolin-5-amine]", "EC50": "2.2 nM"},
      {"smiles": "COc1cccc2c1nc(N)n1nc(CCN3Cc4nc(C)sc4C3)nc21", "note": "[Ex-14, 7-methoxy-2-(2-(2-methyl-4H-pyrrolo[3,4-d]thiazol-5(6H)-yl)ethyl)-[1,2,4]triazolo[1,5-c]quinazolin-5-amine]", "EC50": "1.5 nM"},
      {"smiles": "COc1cccc2c1nc(N)n1nc(CCN3CCc4c(sc(C5CC5)c4C#N)C3)nc21", "note": "[Ex-15, 6-(2-(5-amino-7-methoxy-[1,2,4]triazolo[1,5-c]quinazolin-2-yl)ethyl)-2-cyc1opropyl-4,5,6,7-tetrahydrothieno[2,3-c]pyridine-3-carbonitri1e]", "EC50": "2.2 nM"},
      {"smiles": "COc1cccc2c1nc(N)n1nc(CCN3CCc4nc(C(F)(F)F)[nH]c4C3)nc21", "note": "[Ex-16, 7-methoxy-2-(2-(2-(trifluoromethyl)-6,7-dihydro-3H-imidazo[4,5-c]pyridin-5(4H)-yl)ethyl)-[1,2,4]triazolo[1,5-c]quinazolin-5-amine]", "EC50": "2.3 nM"},
      {"smiles": "COc1cccc2c1nc(N)n1nc(CCN3CCn4c(nnc4C(F)(F)F)C3)nc21", "note": "[Ex-17, 7-methoxy-2-(2-(3-(trifluoromethyl)-5,6-dihydro[1,2,4]triazolo[4,3-a]pyrazin-7(8H)-yl)ethyl)-[1,2,4]triazolo[1,5-c]quinazolin-5-amine]", "EC50": "9.6 nM"},
      {"smiles": "COc1cccc2c1nc(N)n1nc(CCN3Cc4cnc(C(F)(F)F)nc4C3)nc21", "note": "[Ex-18, 7-methoxy-2-(2-(2-(trifluoromethyl)-5H-pyrrolo[3,4-d]pyrimidin-6(7H)-yl)ethyl)-[1,2,4]triazolo[1,5-c]quinazolin-5-amine]", "EC50": "13.3 nM"},
      {"smiles": "COc1cccc2c1nc(N)n1nc(CCN3Cc4cncnc4C3)nc21", "note": "[Ex-19, 2-(2-(5H-pyrrolo[3,4-d]pyrimidin-6(7H)-yl)ethyl)-7-methoxy-[1,2,4]triazolo[1,5-c]quinazolin-5-amine]", "EC50": "7.6 nM"},
      {"smiles": "COc1cccc2c1nc(N)n1nc(CCN3CCCCc4cccnc43)nc21", "note": "[Ex-20, 2-(2-(7,8-dihydro-5H-pyrido[2,3-b]azepin-9(6H)-yl)ethyl)-7-methoxy-[1,2,4]triazolo[1,5-c]quinazolin-5-amine]", "EC50": "12.8 nM"},
      {"smiles": "COc1cccc2c1nc(N)n1nc(CCN3CCc4cccnc43)nc21", "note": "[Ex-21, 2-(2-(2,3-dihydro-1H-pyrrolo[2,3-b]pyridin-1-yl)ethyl)-7-methoxy-[1,2,4]triazolo[1,5-c]quinazolin-5-amine]", "EC50": "31.2 nM"},
      {"smiles": "CCc1nnc2n1CCN(CCc1nc3c4cccc(OC)c4nc(N)n3n1)C2", "note": "[Ex-22, 2-(2-(3-ethyl-5,6-dihydro-[1,2,4]triazolo[4,3-a]pyrazin-7(8H)-yl)ethyl)-7-methoxy-[1,2,4]triazolo[1,5-c]quinazolin-5-amine]", "EC50": "6.7 nM"},
      {"smiles": "COc1cccc2c1nc(N)n1nc(CCN3Cc4cnc(C)nc4C3)nc21", "note": "[Ex-23, 7-methoxy-2-(2-(2-methyl-5H-pyrrolo[3,4-d]pyrimidin-6(7H)-yl)-ethyl)-[1,2,4]triazolo[1,5-c]quinazolin-5-amine]", "EC50": "4.4 nM and 6.6 nM"},
      {"smiles": "COc1cccc2c1nc(N)n1nc(CCN3Cc4ccccc4C3)nc21", "note": "[Ex-24, 2-(2-(isoindolin-2-yl)ethyl)-7-methoxy-[1,2,4]triazolo[1,5-c]quinazolin-5-amine]", "EC50": "11.1 nM"},
      {"smiles": "COc1cccc2c1nc(N)n1nc(CCN3CCc4sc(C)nc4C3)nc21", "note": "[Ex-25, 7-methoxy-2-(2-(2-methyl-6,7-dihydrothiazolo[4,5-c]pyridin-5(4H)-yl)ethyl)-[1,2,4]triazolo[1,5-c]quinazolin-5-amine]", "EC50": "0.9 nM"},
      {"smiles": "COc1cccc2c1nc(N)n1nc(CCN3CCc4sc(C(F)(F)F)nc4C3)nc21", "note": "[Ex-26, 7-methoxy-2-(2-(2-(trifluoromethyl)-6,7-dihydrothiazolo[4,5-c]pyridin-5(4H)-yl)ethyl)-[1,2,4]triazolo[1,5-c]quinazolin-5-amine]", "EC50": "0.5 nM"},
      {"smiles": "COc1cccc2c1nc(N)n1nc(CCN3CCc4oc(C)nc4C3)nc21", "note": "[Ex-27, 7-methoxy-2-(2-(2-methyl-6,7-dihydrooxazolo[4,5-c]pyridin-5(4H)-yl)ethyl)-[1,2,4]triazolo[1,5-c]quinazolin-5-amine]", "EC50": "1.6 nM"},
      {"smiles": "COc1cccc2c1nc(N)n1nc(CCN3CCc4nc(C)oc4C3)nc21", "note": "[Ex-28, 7-methoxy-2-(2-(2-methyl-6,7-dihydrooxazolo[5,4-c]pyridin-5(4H)-yl)ethyl)-[1,2,4]triazolo[1,5-c]quinazolin-5-amine]", "EC50": "2.2 nM"},
      {"smiles": "COc1cccc2c1nc(N)n1nc(CCN3CCc4nc(C)sc4C3)nc21", "note": "[Ex-29, 7-methoxy-2-(2-(2-methyl-6,7-dihydrothiazolo[5,4-c]pyridin-5(4H)-yl)ethyl)-[1,2,4]triazolo[1,5-c]quinazolin-5-amine]", "EC50": "1.7 nM"}
    ]}
  ]
}
